The record followed here is ChEMBL document CHEMBL1201862, “PubChem BioAssay data set” (2004).

Several values for one entry are separate records, joined by “and”; a condition that tells them apart may be missing. Equal entries are not always repeated.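 Grown in 96-well plates, cells were treated for 48 hours with each compound at five concentrations. Insufficient inhibition: endpoint recorded as highest concentration tested. The concentration for 50% growth inhibition is given as GI50.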 Activity calls are given as the source filed them. Rule as the data show it: active = GI50 up to about 1.1 µM and inactive = higher.

Some test systems named below: MOLT-4; UACC-257; NCI-H460; LXFL 529; LOX IMVI; SF-295; HOP-92; A549; K562; SK-MEL-5; UO-31; COLO 205; M14; SF-539; OVCAR-5; SF-268; HL-60; IGROV-1; SR; BT-549.
What all share (experiment): NCI anticancer screen, dose series, 48 h

Consider `C/C(=N\OCC(O)CNC(C)C)c1ccc2c(c1)NC(=O)CS2` (centres undefined), for which the GI50 with MOLT-4, in the test with UACC-257, in the test on NCI-H460, in the test with LXFL 529, in the test on LOX IMVI and in the test on SF-295 was > 100 µM (inactive) in each case. The GI50 with HOP-92 was 42.1 µM (inactive); with A549, > 100 µM (inactive); in the test with K562, > 100 µM (inactive); in the test on SK-MEL-5 it was > 100 µM (inactive); with UO-31, 91.2 µM (inactive); in the test with COLO 205, > 100 µM (inactive). Moreover, the GI50 in the test with M14, with SF-539, in the test on OVCAR-5 and in the test with SF-268 was > 100 µM (inactive) each time.

Regarding `O=C1c2ccccc2-c2c3c(cc4ccnc1c24)OCO3` [LIRIODENINE], the GI50 is 3 µM (inactive) in the test with HL-60; 3.38 µM (inactive) and 3.67 µM (inactive) in the test on MOLT-4; 3.59 µM (inactive) and 3.34 µM (inactive) with NCI-H460; 5.89 µM (inactive) and 6.52 µM (inactive) in the test on LXFL 529; 3.77 µM (inactive) and 4.22 µM (inactive) in the test on LOX IMVI; 6.12 µM (inactive) and 4.86 µM (inactive) in the test on SF-295. Also, the GI50 in the test on HOP-92 was 8.69 µM (inactive) and 5.61 µM (inactive); with A549, 3.48 µM (inactive) and 3.47 µM (inactive); in the test with K562 it was 3.42 µM (inactive) and 4.29 µM (inactive); in the test on SK-MEL-5 it was 2.84 µM (inactive); in the test on UO-31, 4.94 µM (inactive) and 3.42 µM (inactive); in the test with COLO 205, 4.79 µM (inactive) and 4.24 µM (inactive). For the same compound, the GI50 was 7.53 µM (inactive) and 6.71 µM (inactive) in the test with M14; 5.97 µM (inactive) and 3.9 µM (inactive) in the test on IGROV-1; 16.9 µM (inactive) and 11.5 µM (inactive) with OVCAR-5; 6.14 µM (inactive) and 6.03 µM (inactive) in the test on SF-268.

Turning to `OC1c2ccccc2C2(O)C1C(c1ccccc1)C(c1ccccc1)C2(O)c1ccccc1` (centres undefined), the GI50 was 8.87 µM (inactive) in the test with HL-60; 3.98 µM (inactive) with MOLT-4; 14.3 µM (inactive) in the test with UACC-257; 4.56 µM (inactive) in the test with NCI-H460; 9.82 µM (inactive) in the test with LXFL 529; 5.4 µM (inactive) with LOX IMVI. The GI50 with SF-295 was 6.52 µM (inactive); in the test with HOP-92, 7.33 µM (inactive); with A549, 11.4 µM (inactive); in the test with K562, 5.71 µM (inactive); in the test on SK-MEL-5, 7.13 µM (inactive); in the test with UO-31, 13.4 µM (inactive). The GI50 was 14 µM (inactive) with COLO 205; 13.7 µM (inactive) in the test on M14; 12.6 µM (inactive) with SF-539; 18.2 µM (inactive) in the test on IGROV-1; 10.7 µM (inactive) with OVCAR-5; 6.79 µM (inactive) with SF-268.

Take `CCOC(=O)C1N(S(=O)(=O)c2ccc(C)cc2)CCC12C(c1ccc(OC)cc1)NC1CCCCC12` (centres undefined): the GI50 in the test on HL-60 is > 100 µM (inactive); with UACC-257 it was > 100 µM (inactive); with NCI-H460, > 100 µM (inactive); in the test with LXFL 529, > 100 µM (inactive); in the test with LOX IMVI, > 100 µM (inactive); in the test with SF-295 it was 77.6 µM (inactive). Moreover, the GI50 in the test on HOP-92 was 22.9 µM (inactive); in the test on A549 it was > 100 µM (inactive); with K562, > 100 µM (inactive); in the test on SK-MEL-5, > 100 µM (inactive); in the test with UO-31 it was > 100 µM (inactive); with COLO 205, > 100 µM (inactive). Moreover, the GI50 in the test with M14 was > 100 µM (inactive); with SF-539, 55.7 µM (inactive); with IGROV-1, > 100 µM (inactive); with OVCAR-5, > 100 µM (inactive); in the test with SF-268, > 100 µM (inactive).

Take `CCOC(=O)C(Cc1ccc([N+](=O)[O-])cc1)NC(=O)CC1c2ccccc2-c2ccccc21` (centres undefined): the GI50 in the test with HL-60 is > 100 µM (inactive); in the test with MOLT-4, > 100 µM (inactive); with UACC-257 it was 24.5 µM (inactive); in the test on NCI-H460, > 100 µM (inactive); in the test on LXFL 529 it was > 100 µM (inactive); in the test with LOX IMVI, > 100 µM (inactive). The GI50 with SF-295 is 51.5 µM (inactive); with HOP-92 it was 23.7 µM (inactive); in the test on A549, 81.8 µM (inactive); in the test with K562 it was > 100 µM (inactive); in the test on UO-31 it was > 100 µM (inactive); in the test on COLO 205, > 100 µM (inactive). Besides, the GI50 in the test with M14 was 22.9 µM (inactive); in the test on SF-539, 27.9 µM (inactive); with IGROV-1 it was > 100 µM (inactive); in the test on SR, > 100 µM (inactive); in the test on SF-268, 50.7 µM (inactive).

Take `O=C(O)CCSC(=O)Nc1cccc(F)c1`: the GI50 in the test with HL-60 was 23.3 µM (inactive); in the test on MOLT-4, > 100 µM (inactive); in the test with UACC-257, > 100 µM (inactive); in the test on NCI-H460 it was > 100 µM (inactive); with LXFL 529, > 100 µM (inactive); with LOX IMVI, > 100 µM (inactive). Further, the GI50 was > 100 µM (inactive) with SF-295; > 100 µM (inactive) with A549; > 100 µM (inactive) with K562; > 100 µM (inactive) in the test with UO-31; > 100 µM (inactive) with COLO 205; 18.3 µM (inactive) in the test with M14. The GI50 was > 100 µM (inactive) with SF-539; > 10 µM (inactive) in the test on IGROV-1; > 100 µM (inactive) with SR; > 100 µM (inactive) in the test with OVCAR-5; 24.3 µM (inactive) with SF-268.

For the compound `Cc1cn(Cc2ccccc2CCO)c(=S)[nH]c1=O`, the GI50 in the test on HL-60, in the test on MOLT-4, with UACC-257, in the test on NCI-H460, in the test on LXFL 529 and in the test with LOX IMVI was > 100 µM (inactive) throughout. Moreover, the GI50 with SF-295, with HOP-92, with A549, with K562, in the test with SK-MEL-5 and with UO-31 was > 100 µM (inactive) throughout. The GI50 in the test with COLO 205, in the test on M14, with SF-539, with IGROV-1, with OVCAR-5 and in the test on SF-268 was > 100 µM (inactive) in each case.

`CCOC(=O)c1cc([N+](=O)[O-])c(Sc2ncnc3nc[nH]c23)c([N+](=O)[O-])c1`: the GI50 is 6.32 µM (inactive) with BT-549; 4.19 µM (inactive) in the test on HL-60; 1.87 µM (inactive) in the test on MOLT-4; 7.28 µM (inactive) in the test on UACC-257; 7.5 µM (inactive) in the test on NCI-H460; 0.378 µM (active) in the test on LOX IMVI. Also, the GI50 in the test with SF-295 was 3.36 µM (inactive); with HOP-92, 1.03 µM (active); with A549, 20.5 µM (inactive); with K562, 0.53 µM (active); in the test with SK-MEL-5 it was 10.7 µM (inactive); with UO-31, 2.62 µM (inactive). For the same compound, the GI50 was 1.66 µM (inactive) with COLO 205; 2.31 µM (inactive) in the test on M14; 3.09 µM (inactive) in the test with SF-539; 1.26 µM (inactive) with IGROV-1; 3.24 µM (inactive) in the test on SR; 1.66 µM (inactive) in the test with OVCAR-5. For the same compound, in the test on SF-268, the GI50 is 4.5 µM (inactive).

For the compound `Cc1ccccc1OC(C)C(=O)NN1C(=O)CSC1c1ccc(Cl)cc1` (centres undefined), the GI50 in the test on BT-549 was 44.8 µM (inactive); with HL-60, 21.1 µM (inactive); with MOLT-4, 22.1 µM (inactive); in the test on UACC-257 it was 55 µM (inactive); with NCI-H460 it was 26.1 µM (inactive); in the test with LOX IMVI, 24.4 µM (inactive). The GI50 in the test with SF-295 was 25.6 µM (inactive); in the test on HOP-92 it was 31 µM (inactive); in the test with A549, 30.2 µM (inactive); with K562, 23.6 µM (inactive); in the test on SK-MEL-5, 49.9 µM (inactive); with UO-31 it was > 100 µM (inactive). The GI50 was > 56.1 µM (inactive) in the test on COLO 205; 41.5 µM (inactive) with M14; 26.5 µM (inactive) with SF-539; 38.5 µM (inactive) in the test on IGROV-1; 5.47 µM (inactive) in the test with SR; 54.6 µM (inactive) in the test with OVCAR-5. The GI50 with SF-268 was 25.4 µM (inactive).

With `N#Cc1c(N)[nH]c(=S)c(C#N)c1-c1cccc(Cl)c1`, the GI50 was 39.5 µM (inactive) in the test on BT-549; 23.2 µM (inactive) in the test with HL-60; 18.4 µM (inactive) in the test on MOLT-4; 36.3 µM (inactive) in the test with UACC-257; 32.5 µM (inactive) in the test with NCI-H460; 39.9 µM (inactive) with LOX IMVI. The GI50 was 34.9 µM (inactive) in the test with SF-295; 24.4 µM (inactive) in the test on HOP-92; 63.7 µM (inactive) in the test with A549; 26.2 µM (inactive) in the test on K562; 20.2 µM (inactive) in the test with SK-MEL-5; 32.8 µM (inactive) with UO-31. Also, the GI50 with COLO 205 is 15.2 µM (inactive); in the test with M14, 36.5 µM (inactive); with SF-539, 49.2 µM (inactive); in the test with IGROV-1, 32.9 µM (inactive); in the test on SR it was 18.6 µM (inactive); in the test with OVCAR-5, > 100 µM (inactive). For the same compound, the GI50 with SF-268 is 21.8 µM (inactive).

On to `COC(=O)[C@]1(C)CCC[C@]2(C)C3CC4OOC3(C=C4C(C)C)CCC21` (some centres undefined), for which the GI50 in the test on HL-60 is 2.07 µM (inactive); in the test with MOLT-4, 16.9 µM (inactive); with UACC-257 it was 17.3 µM (inactive); in the test with NCI-H460 it was 12.4 µM (inactive); in the test with LXFL 529, 13.7 µM (inactive); with LOX IMVI, 2.77 µM (inactive). Further, the GI50 in the test on SF-295 was 16.3 µM (inactive); with A549, 16.8 µM (inactive); in the test with K562 it was 12 µM (inactive); in the test on SK-MEL-5 it was 16.1 µM (inactive); with UO-31, 15.2 µM (inactive); with COLO 205 it was 19.7 µM (inactive). Also, the GI50 is 15.5 µM (inactive) with M14; 17 µM (inactive) with SF-539; 16 µM (inactive) in the test with IGROV-1; 9.66 µM (inactive) with SR; 19.6 µM (inactive) in the test with OVCAR-5; 15.4 µM (inactive) in the test with SF-268.
